Columns and labels:
rat corpora cavernosa = assay: Pharmacodynamic test: intracavernous pressure on electric stimulation of the cavernous nerve; format: in vivo; conditions: anesthetized male SD rats, 5 mg/kg orally, ratio of ICP to MBp
Description: The test was carried out based on the methods reported (International Journal of Impotence Research 2002, 14, 251 and The Journal of Urology 1992, 147, 1124). After fasted for 12 hours, 4 male SD rats were randomized into each group. After anesthetizing the rats with sodium pentobarbital (50 mg/kg, i.p.), the penile skin was incised and the prepuce was degloved to expose completely the corpora cavernosa (CC). A needle linked to an electrophysiology instrument was inserted into the CC on the right side in order to measure the intracavernous pressure (ICP). The right carotid artery was cannulated in a similar manner to the polyethylene tube in order to monitor the mean blood pressure (MBp) continuously. […] Electric stimulation was performed at 2 Hz, for 60 s with a pulse duration of 5 ms and 3V using a stimulator. The compounds were administrated orally (5 mg/kg). The change of the ICP and MBp were monitored continuously before and after the administration. The effect of the compounds on the erection induced by electric stimulation was evaluated by the ratio of ICP to MBp. The parameter (ICP/MBp) was used to estimate the influence of the compounds to the rat corpora cavernosa. […] The statistical significance of the differences between groups was calculated using Duncan's multiple comparison.

[1] = molecular target: T1, PDE5 from human platelets (Homo sapiens, UniProt O76074); assay: PDE5 inhibitory activity test (scintillation proximity assay); format: biochemical; conditions: PDE5 from human platelets
T1 construct: from tissue; host or cells: human platelets
Source text: The PDE5 and PDE3 were isolated form human platelets, while the PDE6 was isolated form bovine retinas. The enzyme inhibitory activity test conducted immediately after the enzymes had been isolated, using a scintillation proximity assay for the direct detection of AMP/GMP by the TRKQ7100 and TRKQ7090 kit. In summary, the effect of PDE inhibitors was investigated by assaying a fixed amount of enzyme in the presence of varying inhibitor concentrations and low substrate. The final assay volume was made up to 100 μl with 10 μl assay buffer (50 mM Tris/HCl PH 7.5, 8.3 mM MgCl2, 1.7 mM EGTA), and water. Reactions were initiated with enzyme, incubate for 30 minutes at 30° C. and terminated with 50 μl yttrium silicate SPA beads suspension containing zinc sulphate. Shook for 20 minutes and settled for 30 minutes in the dark, then counted on a BECKMAN LS6500 MULTI-PURPOSE SCINTILLATION COUNTER. The IC50 value for the compounds according the present invention was calculated according the counts.
According to the above-mentioned method, the inhibitory activities of some compounds of formula IA and IB according to the invention against PDE5 from human platelets were determined.

male KM mouse = assay: Acute oral toxicity test; format: in vivo; conditions: single oral dose of 3 g/kg, 10 or 11 mice per group
Description: In this test male KM mouse weighting 18-22 g were used, and 10 or 11 mouse were assigned randomly to each group. […] The animals were fasted for 12 hours before the administration.

| Compound | ICP/BP (rat corpora cavernosa) | IC50 [1] | Number of death (male KM mouse) | mortality rate (male KM mouse) |
| --- | --- | --- | --- | --- |
| CCCOc1ccc(S(=O)(=O)N(CCCO)CCCOC)cc1-c1nc2c(CCC)nn(C)c2c(=O)[nH]1 [Example 99, 1-methyl-5-{2-propoxy-5-[[1-(3-methoxypropyl)-1-(3-hydroxypropyl)]amidosulfonyl]phenyl}-3-n-propyl-1,6-dihydro-7H-pyrazolo[4,3-d]pyrimidin-7-one] | 56.2 ± 9.3 | 4.03 nM | 1 | 10% |
| CCCOc1ccc(S(=O)(=O)N(C)CCN(C)C)cc1-c1cc2c(CCC)nn(C)c2c(=O)[nH]1 [Example 75, 1-methyl-5-{2-propoxy-5-[[1-methyl-1-(2-dimethylamino)]amidosulfonyl]phenyl}-3-n-propyl-1,6-dihydro-7H-pyrazolo[4,3-d]pyrimidin-7-one] | 74.2 ± 7.8 | – | – | – |
| CCCOc1ccc(S(=O)(=O)N(C)CCN2CCCCC2)cc1-c1nc2c(CCC)nn(C)c2c(=O)[nH]1 [Example 78, 1-methyl-5-{2-propoxy-5-[[1-methyl-1-(2-piperidin-1-yl)ethyl]amidosulfonyl]phenyl}-3-n-propyl-1,6-dihydro-7H-pyrazolo[4,3-d]pyrimidin-7-one] | 71.6 ± 8.3 | 8.72 nM | – | – |
| CCCc1nn(C)c2c(=O)[nH]c(-c3cc(S(=O)(=O)N4CCN(C)CC4)ccc3OCC)nc12 [sildenafil, Sildenafil, reference compound] | 80.1 ± 5.1 | – | 6 | 60% |
| CCCOc1ccc(S(=O)(=O)N(CCO)CCN2CCOCC2)cc1-c1cc2c(CCC)nn(C)c2c(=O)[nH]1 [Example 95, 1-methyl-5-{2-propoxy-5-[[1-(2-hydroxyethyl)-1-(2-morpholin-1-yl)ethyl]amidosulfonyl]phenyl}-3-n-propyl-1,6-dihydro-7H-pyrazolo[4,3-d]pyrimidin-7-one] | 57.2 ± 10.1 | – | – | – |

— patent US20080318949A1, “Pyrazolopyrimidinone Derivatives, Their Preparation And Their Use” (Topharman Shanghai Co., Ltd, priority 2005, published 2008)
